# Patent US20250057985A1, “REEXPRESSION OF HNF4A TO ALLEVIATE CANCER-ASSOCIATED CACHEXIA” (YEDA RESEARCH AND DEVELOPMENT CO. LTD., priority 2022, published 2025)
# B1: IL-6: recombinant mouse IL-6 (R&D #406-ML-005) (protein, UniProt P08505 25-211, looked up)
# Interleukin-6: FPTSQVRRGDFTEDTTPNRPVYTTSQVGGLITHVLWEIVEMRKELCNGNSDCMNNDDALAENNLKLPEIQRNDGCYQTGYNQEICLLKISSGLLEYHSYLEYMKNNLKDNKKDKARVLQRDTETLIHIFNQEVKDLHKIVLPTPISNALLTDKLESQKEWLRTKTIQFILKSLEEFLKVTLRSTRQT
# What was measured:
# STAT3 = target: T1, STAT3 (Mus musculus, UniProt P42227); test: STAT3 inhibitor in IL-6-treated primary hepatocytes, OTC RT-PCR; assay type: cell-based; conditions: 10 μM inhibitor 30 min then IL-6 48 h
# T1 construct: endogenous in cells; host or cells: primary mouse hepatocytes isolated by liver perfusion
# Protocol: Primary hepatocytes culture: Following perfusion, 1×10^6 isolated hepatocytes were seeded in 3 ml Williams E+Glutamx-TM-1 in 6 well plate. Four hours after, the medium was aspirated, and the cells were washed with PBS and incubated with 2 ml Williams E+Glutamx-TM-1 overnight. Cells were treated with 10 μM of HJC0152 STAT3 inhibitor (Selleckchem #58561), for 30 minutes cells and then treated with 10 ng/ml recombinant mouse IL-6 (R&D #406-ML-005) for 48 h.
# RNA processing and quantitative PCR: RNA was extracted from liver tissue by using QIAzol Lysis Reagent (according to QIAzol® Handbook) or by Direct-zol™ MiniPrep Plus Kit (Zymo Research ZR-R2070). For hepatocytes RNA sequencing, RNA was extracted from dissociated hepatocytes. Following liver perfusion as previously described, hepatocytes were resuspended in QIAzol and frozen in −80° C. RNA was extracted by using QIAzol Lysis Reagent. RNA from cultured primary hepatocytes was extracted by using RNeasy Mini Kit (QIAGENe #74104). To evaluate mtDNA copy number, total DNA was isolated using DNA purification kit (DNeasy Blood & Tissue Kits Qiagen #69504). cDNA was synthesized from […] RNA by using qScript cDNA Synthesis Kit (Quanta #95749). Detection on cDNAs was performed using Syber Green Fast mix Perfect CT (Quantabio #95073) with the required primers (qPCR primer list—Table 1)
# CD8+ splenocytes = conditions: ex-vivo, 1 mM ammonia, WT mice
# Protocol: Activation of T cells from mice spleens: 10 weeks old WT female Balb/c mice were sacrificed and spleen harvested into cold-PBS on ice. Spleens were homogenized by syringe plunger through 70 uM strainer and washed with PBS. Following centrifugation at 1200 rpm for 5 min pellets were treated with RBC lysis buffer according to the manufacturer's instruction. Cells were resuspended in 2×10^6 cells/ml in splenocytes medium (complete RPMI medium supplemented with 50 μM β-mercaptoethanol, […] and Non-essential amino acids) supplemented with 6,000 IU/mL IL-2 (Chiron, rhIL2) and seeded in 24 well plates pre-coated with CD3 (BLG #100302). Following 72 h, cells were collected, centrifuged at 1200 rpm for 5 min, washed with splenocytes medium×2, and analyzed using CytoFLEX (Beckman Coulter) FACS analyzer.
# primary hepatocytes = test: IL-6 supplementation of primary hepatocytes, RT-PCR; assay type: cell-based, mouse
# Protocol: Liver Perfusions and hepatocytes dissociation: Livers of anaesthetized mice were perfused, with specific adjustments. The vena cava was inserted with 27 G syringe, fixed on the perfusion line. 10 ml of pre-warmed to 42° C. PPML buffer followed by 25 ml of pre-warmed to 42′C PM buffer with Liberase (Roche, cat #05401127001) were perfused through the vena cava. Immediately at the beginning of the perfusion, the portal vein was cut. Following perfusion of 25 ml of PM buffer and Liberase solution, livers were harvested into a Petri dish with 10 ml of pre-warmed PM buffer and chopped by forceps. Dissociated liver cells were collected and filtered through a slanted 100 um cell strainer. Cells were spin down at 30 g for 3 min at 4° C. to get hepatocytes enriched pellet. Pellet was resuspended in […] cold PM buffer. To enrich live hepatocytes, 21.6 ml cold Percoll (G.E. Healthcare #17-0891-01) mixed with +2.4 ml DPBSX10+CaCl2)+MgCl2 was added to the cells. Cells were centrifuged at 600 rpm for 10 minutes at 4° C. Supernatant containing the dead cells was aspirated, and cells were resuspended in 25 ml of cold Williams E+Glutamx-TM-1 (Gibco, cat #32551, 1% penstrep, 1% FBS, 1% L-Glutamine). […]
# RNA processing and quantitative PCR: RNA was extracted from liver tissue by using QIAzol Lysis Reagent (according to QIAzol® Handbook) or by Direct-zol™ MiniPrep Plus Kit (Zymo Research ZR-R2070). […]
# T1 sequence (P42227 whole entry, the tested form may be a part): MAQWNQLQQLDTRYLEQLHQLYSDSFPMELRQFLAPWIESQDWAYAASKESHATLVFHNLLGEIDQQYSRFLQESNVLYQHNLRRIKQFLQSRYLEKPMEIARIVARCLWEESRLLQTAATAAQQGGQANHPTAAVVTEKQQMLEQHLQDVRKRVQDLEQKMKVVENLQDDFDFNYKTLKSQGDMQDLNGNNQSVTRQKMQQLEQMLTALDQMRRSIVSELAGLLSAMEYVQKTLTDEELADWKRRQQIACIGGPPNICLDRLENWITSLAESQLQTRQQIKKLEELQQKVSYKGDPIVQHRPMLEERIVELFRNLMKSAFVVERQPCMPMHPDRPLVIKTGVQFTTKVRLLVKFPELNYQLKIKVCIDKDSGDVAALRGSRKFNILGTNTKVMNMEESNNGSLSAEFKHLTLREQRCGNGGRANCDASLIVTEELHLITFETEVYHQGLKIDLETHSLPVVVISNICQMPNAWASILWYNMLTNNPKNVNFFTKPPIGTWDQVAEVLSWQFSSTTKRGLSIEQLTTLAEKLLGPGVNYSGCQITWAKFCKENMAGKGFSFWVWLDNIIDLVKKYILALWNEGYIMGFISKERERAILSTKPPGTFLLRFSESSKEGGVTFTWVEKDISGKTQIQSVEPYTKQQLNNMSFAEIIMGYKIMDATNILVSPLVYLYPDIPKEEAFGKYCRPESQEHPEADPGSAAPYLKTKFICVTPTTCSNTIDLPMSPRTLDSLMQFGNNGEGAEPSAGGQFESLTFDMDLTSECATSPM
molecule,measurement,setting,value
NCCOc1ccc(Cl)cc1C(=O)Nc1ccc([N+](=O)[O-])cc1Cl [HJC0152],OTC expression levels in the presence of IL-6,STAT3,rescued
same,OTC expression levels in the presence of IL-6,STAT3; listed as HJCO152,restores
N [ammonia],activation of T-cells splenocytes,CD8+ splenocytes,reduced
same,survival of T-cells splenocytes,CD8+ splenocytes,reduced
B1,RNA expression levels of OTC,"primary hepatocytes; 10 ng/ml recombinant mouse IL-6, 48 h",decreased
same,CCL2 RNA levels,primary hepatocytes; IL-6 supplementation,increased
